From paper PMC8583849 (International Journal of Molecular Sciences, 2021)
Read-outs that look alike come from different tables or passages of the source. Peptide text beside a SMILES is read from it. * marks the point of attachment. Cbz = O=C(OCc1ccccc1)*

How the values were obtained:
Mpro = experiment: Thermostability assay (TSA); format: binding, SARS-CoV-2; settings: 1 μM protein, normalized with DMSO
Experimental: A reaction mixture containing the protein at 1 μM final concentration and increasing molar excesses of MG-132 (1×, 3×, 10×, 20×, and 50×) was tested. In each well: 20 μL of buffer 5×, 2 μL of protein stock, the volume of MG-132 stock needed for the fixed molar excess, and Milli-Q H2O to reach 99 μL was added. The protein was left in incubation with the compound for 30 min at room temperature. The plate was put on ice, and 1 μL of 500 × SYPRO orange (Thermo Fischer Scientific) was added in each well. The plate was sealed and centrifuged at 200× g and 4 °C for 1 min. The melting curves were measured in a RT-PCR (Eppendorf, Milan, Italy). After a stationary phase of 2 min at 25 °C, the temperature was increased by 0.5 °C every 30 s until the maximum of 95 °C was reached. Fluorescence has been measured at each step. Each condition has been reproduced in tripled. The Tm control with the protein and the equivalent volume of DMSO only was assessed as well.

Cathepsin-L [1] = molecular target: T1, Cathepsin-L (Homo sapiens, UniProt P07711); experiment: Cathepsin-L Inhibitor Screening Kit (Fluorometric); format: biochemical
T1 construct: purchased BPS Bioscience 79591
T1 sequence (P07711 114-333): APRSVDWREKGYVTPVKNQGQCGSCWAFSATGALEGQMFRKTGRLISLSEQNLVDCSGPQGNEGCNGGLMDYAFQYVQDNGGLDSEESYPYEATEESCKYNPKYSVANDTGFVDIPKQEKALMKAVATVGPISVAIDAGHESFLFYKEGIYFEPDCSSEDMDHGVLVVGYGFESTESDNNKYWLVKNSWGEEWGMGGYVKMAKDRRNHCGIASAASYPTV
Experimental: The effect of MG-132 on Cathepsin-L activity was measured using the Cathepsin-L Inhibitor Screening Kit (Fluorometric) (BPS Bioscience #79591, San Diego, CA, USA). The assay is based on the Cathepsin-L mediated cleavage of a synthetic fluorogenic substrate. Generated AFC is measured on a fluorescence microplate reader. The assay was performed according to the manufacturer protocol but adapted to 384-well format with a final volume of 10 μL. Briefly, compounds (stock in 100% v/v DMSO) are transferred in black 384-well microplates by acoustic dispensing (Echo, Labcyte, Beckman Coulter); 5 µL of diluted Cathepsin-L is added and incubated for 30 min at RT. The enzymatic reaction is initiated by the addition of 5 µL of the substrate. The fluorescence signal is detected in a kinetic mode for 15 min at 37 °C using Ex/Em = […] (Envision, PerkinElmer). Final assay concentrations were: Cathepsin-L 0.01 ng/μL, substrate 5 μM. E-64 provided in the kit was used as a positive control for Cathepsin-L inhibition and assay validation. DMSO was used as compound solvent control (0% inhibition).

[2] = system: T2, SARS-CoV-2 protease PLpro; experiment: Activity towards PLpro; format: biochemical; settings: paper in preparation
T2 construct: the papain-like protease (PLpro; nsp3)
Excerpt: Knowing the role of MG-132 in inhibition of the proteasome and representatives of Cathepsin and Calpain proteases, we investigated its role in the inhibition of Cathepsin-L, one of the key enzymes needed for the entry of SARS-CoV-2. Previously, we reported the anti-cytopathic activity of MG-132 in SARS-CoV-2 infected Vero-E cells [see CHEMBL Entry https://www.ebi.ac.uk/chembl/document_report_card/CHEMBL4495565/, accessed on 28 October 2021]. The results were confirmed by different groups reporting antiviral activity also in other cell lines like Huh-7 and Calu-3 all with sub-micromolar EC50 [39]. If we compare the antiviral activity in cells to the high IC50 measured against Mpro it is reasonable to assume that the effect on Mpro is probably too low to justify submicromolar cell activity, and thus it is supported by inhibition of host proteases. We have measured no activity towards the second SARS-CoV-2 protease PLpro (paper in preparation).

[3] = system: SARS-CoV-2 main protease (Mpro); design: method as in PMID 35287429; settings: read-out: IC50 in the Mpro enzymatic assay, cited from earlier work
[4] = system: SARS-CoV-2 strain BetaCov/Belgium/GHB-03021/2020; design: method as in PMID 35287429; settings: Vero-E6 cells infected by SARS-CoV-2; read-out: EC50, reduction of viral RNA (qPCR); cited from earlier work
[5] = system: rat liver isolated Cathepsin-L; design: method as in PMID 18830882; settings: cited from earlier work
SARS-CoV-2 in Huh-7 = system: SARS-CoV-2 in Huh-7; design: method as in PMID 33811811; settings: Huh-7 cells; cited from earlier work
SARS-CoV-2 in Calu-3 = system: SARS-CoV-2 in Calu-3; design: method as in PMID 33811811; settings: Calu-3 cells; cited from earlier work
Cathepsin-L [6] = system: Cathepsin-L; design: method as in https://www.apexbt.com/e-64.html; settings: ref https://www.apexbt.com/e-64.html; read-out: IC50, Cathepsin-L inhibition, literature value; cited from earlier work

| Structure (SMILES) | ΔTm (Mpro; 50 molar excess of inhibitor) [°C] | ΔTm (Mpro; one molar excess of inhibitor) [°C] | IC50 (Cathepsin-L [1]; IC50 (M), Cathepsin-L inhibition, fit values given in Figure 6) [M] | IC50 (Cathepsin-L [1]; IC50, Cathepsin-L inhibition, Cathepsin-L 0.01 ng/μL, substrate 5 μM, 30 min incubation at RT) [M] | HillSlope, Cathepsin-L inhibition (Cathepsin-L [1]; fit values given in Figure 6) | LogIC50, Cathepsin-L inhibition (Cathepsin-L [1]; fit values given in Figure 6) | activity towards PLpro [2] | IC50 [3] [nM] | IC50 ([3]; with 1 mM DTT) [nM] | EC50 [4] [nM] | EC50 [5] [nM] | EC50, antiviral activity (SARS-CoV-2 in Huh-7) | EC50, antiviral activity (SARS-CoV-2 in Calu-3) | IC50 (Cathepsin-L [1]; Cathepsin-L 0.01 ng/μL, substrate 5 μM, 30 min incubation at RT, read-out: IC50, Cathepsin-L inhibition) [M] | IC50 (Cathepsin-L [1]; fit values given in Figure 6, read-out: IC50 (M), Cathepsin-L inhibition) [M] | IC50 (Cathepsin-L [6]) [nM] |
| --- | --- | --- | --- | --- | --- | --- | --- | --- | --- | --- | --- | --- | --- | --- | --- | --- |
| CC(C)C[C@@H](C=O)NC(=O)[C@H](CC(C)C)NC(=O)[C@H](CC(C)C)NC(=O)OCc1ccccc1 [MG-132] (Cbz-Leu-Leu-Leu-aldehyde) | 3.5 | 0.5 | 1.55e-10 | 1.5e-10 | -1.826 | -9.811 | no activity | 7400 | 4700 | 100 | 163 | sub-micromolar | sub-micromolar |  |  |  |
| CC(C)C[C@H](NC(=O)[C@H]1O[C@@H]1C(=O)O)C(=O)NCCCCN=C(N)N [E64] |  |  |  |  | -2.040 | -8.560 |  |  |  |  |  |  |  | 2.7e-09 | 2.75e-09 | 2.5 |
